In US9957273B2, “5-substituted 7- [4-(2-pyridyl)phenylmethylamino] -3-isopropylpyrazolo4,3-D]pyrimidine derivatives, use thereof as medicaments, and pharmaceutical compositions” (USTAV EXPERIMENTALNI BOTANIKY AV CR, V.V.I., priority 2015, dated 2018):
pEC50: −log10 of the molar value. Each block holds one molecule with its values, some of them ahead of it.

Key:
[1] = system: K562 (human chronic myelogenous leukaemia); assay: MTT cytotoxicity assay, leukemic cell line K562; assay type: cell-based; settings: three days
Excerpt: (§1) Cytotoxicity of the compounds is the major property determining their antileukemic efficacy in vivo. One of the parameters used, as the basis for cytotoxicity assays, is the metabolic activity of viable cells. For example, a microtiter assay, which uses (3-(4,5-dimethylthiazol-2-yl)-2,5-diphenyltetrazolium bromide (MTT), is widely used to quantitate cell proliferation and cytotoxicity. This assay is widely used in drug screening programs and in chemosensitivity testing. Because only metabolically active living cells reduce MTT to correspond purple formazan dye, these assays detect viable cells exclusively. The quantity of reduced MTT corresponds to the number of vital cells in the culture.
(§2) The compounds were assayed using the following leukemic cell lines: K562 (human chronic myelogenous leukaemia), HL60 (human promyelocytic leukaemia), CEM (human lymphoblastoid leukaemia), THP1 (human monocytic cell line), MV4; 11 (acute myelocytic leukemia). All cell lines were grown in RPMI medium supplemented with fetal bovine serum and L-glutamine and maintained at 37° C. in a humidified atmosphere with 5% CO2. For cytotoxicity assays, 2000-5000 cells were seeded into each well of 96 well plate, allowed to stabilize for at least 8 h and then tested compounds were added at various concentrations ranging from 100 to 0.01 μM in triplicates. After three days, MTT solution (5 mg/ml; Sigma, St. Louis, USA) was added to cells and medium was replaced with DMSO after five hours. The absorbance was measured at 620 nm by employing a microplate reader. MTT assays were repeated 3 times for each drug application and untreated cells were used as reference.

[2] = system: HL60 (human promyelocytic leukaemia); assay: MTT cytotoxicity assay, leukemic cell line HL60; assay type: cell-based; settings: three days
Excerpt: as §1, §2

[3] = system: CEM (human lymphoblastoid leukaemia); assay: MTT cytotoxicity assay, leukemic cell line CEM; assay type: cell-based; settings: three days
Excerpt: as §1, §2

[4] = system: THP1 (human monocytic cell line); assay: MTT cytotoxicity assay, leukemic cell line THP1; assay type: cell-based; settings: three days
Excerpt: as §1, §2

[5] = system: MV4;11 (acute myelocytic leukemia); assay: MTT cytotoxicity assay, leukemic cell line MV4;11; assay type: cell-based; settings: three days
Excerpt: as §1, §2

CDK2/Cyclin E = biological target: T1, CDK2/Cyclin E (Homo sapiens, UniProt P24941); assay: CDK2/Cyclin E kinase inhibition (33P-ATP, histone H1); assay type: biochemical; settings: 15 μM ATP
T1 construct: made in house; host or cells: Sf9 insect cells (baculovirus)
Description: CDK2/Cyclin E kinase was produced in Sf9 insect cells via baculoviral infection and purified on a NiNTA column (Qiagen). The kinase reactions were assayed with 1 mg/mL histone H1 in the presence of 15 μM ATP, 0.05 μCi [γ-^33P]ATP and of the test compound in a final volume of 10 μL, all in a reaction buffer (60 mM HEPES-NaOH, pH 7.5, 3 mM MgCl2, 3 mM MnCl2, 3 μM Na-orthovanadate, 1.2 mM DTT, 2.5 μg/50 μl PEG20.000). CDK5/p35 was purchased from ProQinase GmbH. The kinase reactions were assayed with 1 mg/mL histone H1 in the presence of 0.15 μM ATP, 0.05 μCi [γ-^33P]ATP and of the test compound in a final volume of 10 μL, all in a reaction buffer (60 mM HEPES-NaOH, pH 7.5, 3 mM MgCl2, 3 mM MnCl2, 3 μM Na-orthovanadate, 1.2 mM DTT, 2.5 μg/50 μl PEG20.000).
(§3) The reactions were stopped by adding 5 μL of 3% aq H3PO4. Aliquots were spotted onto P-81 phosphocellulose (Whatman), washed 3× with 0.5% aq H3PO4 and finally air-dried.

CDK5/p35 = biological target: T2, CDK5/p35 (Homo sapiens, UniProt Q00535); assay: CDK5/p35 kinase inhibition (33P-ATP, histone H1); assay type: biochemical; settings: 0.15 μM ATP
T2 construct: purchased ProQinase GmbH
T2 sequence (Q00535 whole entry): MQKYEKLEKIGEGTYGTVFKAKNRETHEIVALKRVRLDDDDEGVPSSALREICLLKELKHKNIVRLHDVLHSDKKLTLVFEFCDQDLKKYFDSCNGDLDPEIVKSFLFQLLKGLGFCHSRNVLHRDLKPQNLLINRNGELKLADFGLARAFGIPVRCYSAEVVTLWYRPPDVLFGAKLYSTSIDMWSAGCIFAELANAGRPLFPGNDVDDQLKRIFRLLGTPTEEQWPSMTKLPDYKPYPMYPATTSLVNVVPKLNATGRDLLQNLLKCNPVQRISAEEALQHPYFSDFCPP
T2 sequence (Q15078 whole entry partner): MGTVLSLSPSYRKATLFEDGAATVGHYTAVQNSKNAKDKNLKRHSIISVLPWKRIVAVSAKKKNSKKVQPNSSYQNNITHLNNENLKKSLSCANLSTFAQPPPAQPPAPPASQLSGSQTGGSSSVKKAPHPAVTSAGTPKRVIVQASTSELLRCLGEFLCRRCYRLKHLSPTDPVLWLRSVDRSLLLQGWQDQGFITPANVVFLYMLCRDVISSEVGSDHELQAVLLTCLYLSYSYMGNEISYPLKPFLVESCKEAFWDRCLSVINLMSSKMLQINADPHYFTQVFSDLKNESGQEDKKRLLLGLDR
Description: CDK2/Cyclin E kinase was produced in Sf9 insect cells via baculoviral infection and purified on a NiNTA column (Qiagen). […] CDK5/p35 was purchased from ProQinase GmbH.
as §3

[6] = system: G361 (malignant melanoma); assay: MTT cytotoxicity assay, solid cancer cell line G361; assay type: cell-based; settings: Homo sapiens, G-361, 72 h, three days
Description: as §2, with “following” for “following leukemic”, “G361 (malignant melanoma), MCF7 (breast adenocarcinoma), PLC/PRF/5 (liver hepatoma), PANC-1 (pancreatic carcinoma) and HCT116 (colon carcinoma).” for “K562 (human chronic myelogenous leukaemia), HL60 (human promyelocytic leukaemia), CEM (human lymphoblastoid leukaemia), THP1 (human monocytic cell line), MV4; 11 (acute myelocytic leukemia).”, “DMEM” for “RPMI”, “4000-10000” for “2000-5000”, “of a” for “of”, “16” for “8”

[7] = system: MCF7 (breast adenocarcinoma); assay: MTT cytotoxicity assay, solid cancer cell line MCF7; assay type: cell-based; settings: Homo sapiens, MCF7, 72 h, three days
Description: as §2, with “following” for “following leukemic”, “G361 (malignant melanoma), MCF7 (breast adenocarcinoma), PLC/PRF/5 (liver hepatoma), PANC-1 (pancreatic carcinoma) and HCT116 (colon carcinoma).” for “K562 (human chronic myelogenous leukaemia), HL60 (human promyelocytic leukaemia), CEM (human lymphoblastoid leukaemia), THP1 (human monocytic cell line), MV4; 11 (acute myelocytic leukemia).”, “DMEM” for “RPMI”, “4000-10000” for “2000-5000”, “of a” for “of”, “16” for “8”

[8] = system: PLC/PRF/5 (liver hepatoma); assay: MTT cytotoxicity assay, solid cancer cell line PLC/PRF/5; assay type: cell-based; settings: Homo sapiens, PLC-PRF-5, 72 h, three days
Description: as §2, with “following” for “following leukemic”, “G361 (malignant melanoma), MCF7 (breast adenocarcinoma), PLC/PRF/5 (liver hepatoma), PANC-1 (pancreatic carcinoma) and HCT116 (colon carcinoma).” for “K562 (human chronic myelogenous leukaemia), HL60 (human promyelocytic leukaemia), CEM (human lymphoblastoid leukaemia), THP1 (human monocytic cell line), MV4; 11 (acute myelocytic leukemia).”, “DMEM” for “RPMI”, “4000-10000” for “2000-5000”, “of a” for “of”, “16” for “8”

[9] = system: PANC-1 (pancreatic carcinoma); assay: MTT cytotoxicity assay, solid cancer cell line PANC-1; assay type: cell-based; settings: Homo sapiens, PANC-1, 72 h, three days
Description: as §2, with “following” for “following leukemic”, “G361 (malignant melanoma), MCF7 (breast adenocarcinoma), PLC/PRF/5 (liver hepatoma), PANC-1 (pancreatic carcinoma) and HCT116 (colon carcinoma).” for “K562 (human chronic myelogenous leukaemia), HL60 (human promyelocytic leukaemia), CEM (human lymphoblastoid leukaemia), THP1 (human monocytic cell line), MV4; 11 (acute myelocytic leukemia).”, “DMEM” for “RPMI”, “4000-10000” for “2000-5000”, “of a” for “of”, “16” for “8”

HCT116 (colon carcinoma) = assay: MTT cytotoxicity assay, solid cancer cell line HCT116; assay type: cell-based; settings: Homo sapiens, HCT-116, 72 h, three days
Description: as §2, with “following” for “following leukemic”, “G361 (malignant melanoma), MCF7 (breast adenocarcinoma), PLC/PRF/5 (liver hepatoma), PANC-1 (pancreatic carcinoma) and HCT116 (colon carcinoma).” for “K562 (human chronic myelogenous leukaemia), HL60 (human promyelocytic leukaemia), CEM (human lymphoblastoid leukaemia), THP1 (human monocytic cell line), MV4; 11 (acute myelocytic leukemia).”, “DMEM” for “RPMI”, “4000-10000” for “2000-5000”, “of a” for “of”, “16” for “8”

[10] = system: HUVECs (human umbilical vein endothelial cells); assay: HUVEC proliferation assay (crystal violet); assay type: cell-based; settings: Homo sapiens, HUVEC, 72 h, read-out: Inhibition of proliferation (EC50)
Description: To verify that novel compounds have anti-vascularisation properties, we analyzed their influence on the proliferation and migration of HUVECs. HUVECs (human umbilical vein endothelial cells) were purchased from Promocell (Heidelberg, Germany) and cultured in endothelial cell growth medium (ECGM, Promocell, Heidelberg, Germany) containing 10% FCS (Biochrom, Berlin, Germany). Experiments were performed using cells at passage 3.
For proliferation assay, 1.5×10^3 HUVECs were cultured for 24 h. Afterwards, cells were either left untreated or treated with novel compounds for 72 h. Proliferation assay was performed using crystal violet as described previously (Koltermann et al. 2007, Cell Mol. Life Sci. 64:1715-1722).

IC50 (CDK5/p35): 0.422 µM
SMILES: CC(C)c1[nH]nc2c(NCc3ccc(-c4ccccn4)cc3)nc(N3CCN(CCO)CC3)nc12 [Compound 17]
IC50 ([1]; Homo sapiens, K562, 72 h): 0.15 µM
IC50 ([2]; Homo sapiens, HL-60, 72 h): 0.26 µM
IC50 ([3]; Homo sapiens, 72 h): 0.11 µM
IC50 ([4]; Homo sapiens, THP-1, 72 h): 0.3 µM
IC50 ([5]; Homo sapiens, MV4-11, 72 h): 0.37 µM
IC50 [6]: 0.24 µM
IC50 [7]: 0.19 µM
IC50 [8]: 0.73 µM
IC50 [9]: 0.34 µM
IC50 (HCT116 (colon carcinoma)): 0.4 µM
pEC50 [10]: 7.02

IC50 (CDK5/p35): 0.005 µM
SMILES: CC(C)c1[nH]nc2c(NCc3ccc(-c4ccccn4)cc3)nc(N3CCOCC3)nc12 [Compound 9]
IC50 ([1]; Homo sapiens, K562, 72 h): 0.11 µM
IC50 ([2]; Homo sapiens, HL-60, 72 h): 0.1 µM
IC50 ([3]; Homo sapiens, 72 h): 0.07 µM
IC50 ([4]; Homo sapiens, THP-1, 72 h): 0.18 µM
IC50 ([5]; Homo sapiens, MV4-11, 72 h): 0.36 µM
IC50 [6]: 0.25 µM
IC50 [7]: 0.16 µM
IC50 [8]: 0.21 µM
IC50 [9]: 0.3 µM
IC50 (HCT116 (colon carcinoma)): 0.42 µM
pEC50 [10]: 6.87

IC50 (CDK5/p35): 0.229 µM
SMILES: CSc1nc(NCc2ccc(-c3ccccn3)cc2)c2[nH]nc(C(C)C)c2n1 [Compound 5]
IC50 ([1]; Homo sapiens, K562, 72 h): 0.78 µM
IC50 ([2]; Homo sapiens, HL-60, 72 h): 0.86 µM
IC50 ([3]; Homo sapiens, 72 h): 0.94 µM
IC50 ([4]; Homo sapiens, THP-1, 72 h): 0.32 µM
IC50 ([5]; Homo sapiens, MV4-11, 72 h): 0.6 µM
IC50 [6]: 0.24 µM
IC50 [7]: 0.81 µM
IC50 [8]: 0.7 µM
IC50 [9]: 0.65 µM
IC50 (HCT116 (colon carcinoma)): 1.3 µM
pEC50 [10]: 6.63

IC50 (CDK2/Cyclin E): 0.042 µM
IC50 (CDK5/p35): 0.18 µM
SMILES: CC(C)c1[nH]nc2c(NCc3ccc(-c4ccccn4)cc3)nc(N3CCCCC3)nc12 [Compound 14]

IC50 (CDK5/p35): 4.42 µM
SMILES: COc1ccc(CNc2nc(NCc3ccc(-c4ccccn4)cc3)c3n[nH]c(C(C)C)c3n2)cc1 [Compound 73]
IC50 ([1]; Homo sapiens, K562, 72 h): 3.95 µM
IC50 ([2]; Homo sapiens, HL-60, 72 h): 0.78 µM
IC50 ([3]; Homo sapiens, 72 h): 0.89 µM
IC50 ([4]; Homo sapiens, THP-1, 72 h): 0.67 µM
IC50 ([5]; Homo sapiens, MV4-11, 72 h): 0.97 µM
IC50 [6]: 2.62 µM
IC50 [7]: 5.3 µM
IC50 [8]: 3.94 µM
IC50 [9]: 0.44 µM
IC50 (HCT116 (colon carcinoma)): 0.99 µM
pEC50 [10]: 5.64

IC50 (CDK2/Cyclin E): 0.046 µM
IC50 (CDK5/p35): 0.088 µM
SMILES: CC(C)c1n[nH]c2c(NCc3ccc(-c4ccccn4)cc3)nc(N[C@@H]3CCCC[C@H]3N)nc12 (relative stereo) [Compound 64]
IC50 ([1]; Homo sapiens, K562, 72 h): 0.1 µM
IC50 ([2]; Homo sapiens, HL-60, 72 h): 0.09 µM
IC50 ([3]; Homo sapiens, 72 h): 0.05 µM
IC50 ([4]; Homo sapiens, THP-1, 72 h): 0.04 µM
IC50 ([5]; Homo sapiens, MV4-11, 72 h): 0.09 µM
IC50 [6]: 0.15 µM
IC50 [7]: 0.22 µM
IC50 [8]: 0.14 µM
IC50 [9]: 0.08 µM
IC50 (HCT116 (colon carcinoma)): 0.34 µM

The next lines start with the molecule.

SMILES: CC(C)c1n[nH]c2c(NCc3ccc(-c4ccccn4)cc3)nc(NCCN)nc12 [Compound 40]
IC50 ([1]; Homo sapiens, K562, 72 h): 0.34 µM
IC50 ([2]; Homo sapiens, HL-60, 72 h): 0.22 µM
IC50 ([3]; Homo sapiens, 72 h): 0.14 µM
IC50 ([4]; Homo sapiens, THP-1, 72 h): 0.11 µM
IC50 ([5]; Homo sapiens, MV4-11, 72 h): 0.25 µM
IC50 (CDK2/Cyclin E): 0.027 µM
IC50 (CDK5/p35): 0.038 µM

SMILES: CC(C)c1n[nH]c2c(NCc3ccc(-c4ccccn4)cc3)nc(NCC(C)N3CC3)nc12 (stereo not drawn) [Compound 57]
IC50 [1]: 0.44 µM
IC50 [2]: 0.32 µM
IC50 [3]: 0.27 µM
IC50 [4]: 0.29 µM
IC50 [5]: 0.53 µM

SMILES: CC(C)c1n[nH]c2c(NCc3ccc(-c4ccccn4)cc3)nc(NCCCN)nc12 [Compound 41]
IC50 [1]: 0.47 µM
IC50 [2]: 0.56 µM
IC50 [3]: 0.43 µM
IC50 [4]: 0.27 µM
IC50 [5]: 0.35 µM

SMILES: CC(C)c1n[nH]c2c(NCc3ccc(-c4ccccn4)cc3)nc(N[C@H](C)CCO)nc12 [Compound 31]
IC50 [1]: 0.39 µM
IC50 [2]: 0.24 µM
IC50 [3]: 0.21 µM
IC50 [4]: 0.26 µM
IC50 [5]: 0.31 µM
